Laboratory results published in patent publication US20040022861A1, “Process for production of nanoparticles and microparticles by spray freezing into liquid” (priority 2001, published 2004).
In brackets after ≈: the same amount, converted by molar mass.

Assays:
[1] = BET specific surface area; format: physicochemical
Excerpt: The microparticles obtained were discrete and compact with almost spherical shape. […] The protein/polymer ratio has a strong effect on the entrapment efficiency and loading degree of the incorporated protein. The entrapment efficiency was high for all investigated biodegradable polymers. High polymer concentration yielded high entrapment efficiency for all observed biodegradable polymers and is illustrated at FIG. 6. Scanning Electron Micrographs (SEM) were taken of microparticles prepared by the following conditions: […] An adsorption isotherm derived by S. Brunaure, P. H. Emmett, and E.

[2] = Particle size distribution of dry powders (time-of-flight); format: physicochemical
Protocol: (§1) An aliquot of 0.1 g bovine insulin was dissolved in 20 ml HCl (pH=2), the solution was then titrated by 0.1 N NaOH to pH 7.4. The feed solution was then atomized using an ISCO pump by spray freezing into liquid nitrogen. The nozzle used was polyetheretherketone tubing with a diameter of 63.5 μm. The flow rate was 14 ml/min at 4000 psi. The frozen particles were collected and dried in a tray lyophilizer.
The span index is used to described the polydispersity in a given particle size distribution and is defined as (D90-D10)/D50, where D10, D50, and D90 are the respective particle size at 10, 50, 90 percent cumulative percent undersize.

[3] = Contact angle against dissolution media (SLS/Tris); format: physicochemical
Excerpt: (§2) Ethyl acetate/water or dichloromethane/water mixtures were used to produce o/w emulsions for SFL micronization, and a tetrahydrofuran/water mixture was used to formulate the feed solutions. Micronized SFL powders were characterized by x-ray diffraction, surface area, scanning and transmission electron microscopy, contact angle and dissolution (SLS 0.75%/Tris 1.21% media).

Dissolution study = format: physicochemical
Excerpt: “FeSSIF” means fed state simulated intestinal fluid prepared by a recipe known in the art. This media is used to simulate gastrointestinal conditions. FeSSIF is the dissolution media that the powders produced in the following examples are dispersed into to quantitate the amount of drug dissolved as a function of time.
as §2

[4] = cited from earlier work
[5] = Chemical stability of insulin: A-21 desamido insulin level (RP-HPLC); format: physicochemical; conditions: for percentage of A-21 desamido in the samples: stored at −4° C.
Protocol: as §1, with “lyophilizer. The resulting particles were highly porous. […] The SFL process decreased the level of covalent insulin dimer (Table 3). The mean particle size diameter as determined by time-of-flight measurement was 5.06 microns. SEM photographs reveal that the particle is an aggregate composed of small domains of insulin.” for “lyophilizer.”
(§3) The SFL insulin powder was prepared according to the procedure outlined in Example 1 with same formulation. The SFL insulin powder was stored at −4° C. The samples were taken out at 6, 12 and 24 weeks.
(§4) The products were characterized by different techniques. […] The median aerodynamic particle size was 5.06 μm.

[6] = Insulin aggregation: covalent insulin dimer (size exclusion HPLC); format: physicochemical; conditions: for percentage of covalent insulin dimer in the samples: stored at −4° C.
Protocol: as §1, with “lyophilizer. The resulting particles were highly porous. […] The SFL process decreased the level of covalent insulin dimer (Table 3). The mean particle size diameter as determined by time-of-flight measurement was 5.06 microns. SEM photographs reveal that the particle is an aggregate composed of small domains of insulin.” for “lyophilizer.”
as §3, §4

For C#C[C@]1(O)CC[C@H]2[C@@H]3CCC4=Cc5oncc5C[C@]4(C)[C@H]3CC[C@@]21C [Danazol], the “BET specific surface area” value ([1]; Examples 4, 5, 8) was 0.52 m2/g, the “Specific Surface Area (m^2/g)” value ([1]; Table 14 and text Example 30) was 0.52 m^2/g and the “M 10(μm)” value ([2]; dry powders, Table 14) was 7.28 μm. The “M 90(μm)” value ([2]; dry powders, Table 14) was 51.78 μm, the “M 50(μm)” value ([2]; dry powders, Table 14 and text Example 30) was 23.10 μm and the “Average Contact Angle (S.D.)” value ([3]; listed as Bulk Danazol) was 64.3 (1.1)^2 °. The “Average Contact Angle (S.D.)” value ([3]; listed as bulk micronized danazol) was 64.3 °, the danazol dissolved (Dissolution study; FeSSIF media, 60 minutes) was 21% and the danazol dissolved (Dissolution study; SLS 0.75%/Tris 1.21% media, 5 minutes) was “Approximately 53%”. The danazol dissolved (Dissolution study; SLS 0.75%/Tris 1.21% media, 60 minutes) was “about 88%”.
In the case of NC(=O)N1c2ccccc2C=Cc2ccccc21 [CBZ, carbamazepine], the “Span Index” value ([2]; (D90-D10)/D50) is reported as 2.94, the “D10 (μm)” value ([2]; time-of-flight, Table 10) is reported as 15.56 μm and the “D50 (μm)” value ([2]; time-of-flight, Table 10) is reported as 39.70 μm. The “D90 (μm)” value ([2]; time-of-flight, Table 10) was 132.33 μm, the mean particle diameter ([2]; time-of-flight, text Example 8) was 39.70 μm and the “CBZ dissolved in water” value (Dissolution study; water, within 10 minutes) was “about 4%”. For the same molecule, the aqueous solubility [4] was 61 µg/mL (≈ 258 µM).
With bovine insulin [Bulk insulin] the “A-21 desamido insulin (percent)” value ([5]; Table 3) was 3.03%, the “percentage of A-21 desamido in the samples” value (shortened to “percentage of A-21 desamido”) ([5]; 12 weeks) was 2.61 percentage and the “percentage of A-21 desamido” value ([5]; 24 weeks) was 2.72 percentage. For the same molecule, the “percentage of A-21 desamido” value ([5]; Initial) was 2.46 percentage, the “Covalent Insulin Dimer (percent)” value ([6]; Table 3) was 0.25% and the “percentage of covalent insulin dimer in the samples” value ([6]; 12 weeks) was 1.18 percentage. For the same molecule, the “percentage of covalent insulin dimer in the samples” value ([6]; 24 weeks) was 1.15 percentage, the “percentage of covalent insulin dimer in the samples” value ([6]; Initial) was 0.5 percentage and the “Mean Particle Size (μm)” value ([2]; Table 3) was 14.24 μm.
